{"source": "patent US20120122727A1", "about": "“IN VITRO METHOD FOR PREDICTING WHETHER A COMPOUND IS GENOTOXIC IN VIVO” (priority 2009, published 2012)", "key": {"[1]": {"test_system": "primary mouse hepatocytes"}, "[2]": {"test_system": "primary mouse hepatocytes", "experiment": "Gene expression (Affymetrix Mouse Genome 430 2.0) in primary mouse hepatocytes, true vs false GTX, 24 h and 48 h"}}, "data": [{"substance": "Mitomycin C [MitC]", "values": [{"measurement": "Gene expression data AF204959 (Cyp3a25 /// LOC622249)", "setting": "[1]", "value": 0.8169}, {"measurement": "Gene expression AA561726 average", "setting": "[2]", "value": "−4.372"}, {"measurement": "Gene expression AF000969 average", "setting": "[2]", "value": "−3.3606"}, {"measurement": "Gene expression AF022072 average", "setting": "[2]", "value": "−3.37"}, {"measurement": "Gene expression AF033112 average", "setting": "[2]", "value": 2.219}, {"measurement": "Gene expression AF055573 average", "setting": "[2]", "value": "−2.916"}, {"measurement": "Gene expression AF069954 average", "setting": "[2]", "value": 2.26}, {"measurement": "Gene expression AF297615 average", "setting": "[2]", "value": 1.841}, {"measurement": "Gene expression AF335325 average", "setting": "[2]", "value": 1.755}, {"measurement": "Gene expression AI594683 average", "setting": "[2]", "value": 4.611}, {"measurement": "Gene expression AI747296 average", "setting": "[2]", "value": "−2.056"}, {"measurement": "Gene expression AK005731 average", "setting": "[2]", "value": 6.089}, {"measurement": "Gene expression AK007854 average", "setting": "[2]", "value": 1.5}, {"measurement": "Gene expression AK010447 average", "setting": "[2]", "value": "−1.6388"}, {"measurement": "Gene expression AK010738 average", "setting": "[2]", "value": 1.98}, {"measurement": "Gene expression AK014608 average", "setting": "[2]", "value": 2.8746}, {"measurement": "Gene expression AK017734 average", "setting": "[2]", "value": 1.835}, {"measurement": "Gene expression AK018383 average", "setting": "[2]", "value": 0.994}, {"measurement": "Gene expression AK019979 average", "setting": "[2]", "value": "−3.757"}, {"measurement": "Gene expression AV095209 average", "setting": "[2]", "value": "−2.78"}, {"measurement": "Gene expression AV141095 average", "setting": "[2]", "value": "−2.411"}, {"measurement": "Gene expression AV173869 average", "setting": "[2]", "value": "−2.2889"}, {"measurement": "Gene expression AV216768 average", "setting": "[2]", "value": "−4.149"}, {"measurement": "Gene expression AV219418 average", "setting": "[2]", "value": 4.168}, {"measurement": "Gene expression AV221299 average", "setting": "[2]", "value": "−3.71"}, {"measurement": "Gene expression AV246296 average", "setting": "[2]", "value": 1.4788}, {"measurement": "Gene expression AV251625 average", "setting": "[2]", "value": 2.477}, {"measurement": "Gene expression AV254764 average", "setting": "[2]", "value": 1.411}, {"measurement": "Gene expression AV327248 average", "setting": "[2]", "value": 4.918}, {"measurement": "Gene expression BB009155 average", "setting": "[2]", "value": 2.9201}, {"measurement": "Gene expression BB027848 average", "setting": "[2]", "value": 1.879}, {"measurement": "Gene expression BB043558 average", "setting": "[2]", "value": 2.332}, {"measurement": "Gene expression BB046347 average", "setting": "[2]", "value": 1.35}, {"measurement": "Gene expression BB140436 average", "setting": "[2]", "value": "−1.601"}, {"measurement": "Gene expression BB204486 average", "setting": "[2]", "value": "−4.144"}, {"measurement": "Gene expression BB223872 average", "setting": "[2]", "value": 2.201}, {"measurement": "Gene expression BB246912 average", "setting": "[2]", "value": "−1.866"}, {"measurement": "Gene expression BB275142 average", "setting": "[2]", "value": 2.282}, {"measurement": "Gene expression BB458460 average", "setting": "[2]", "value": "−2.7207"}, {"measurement": "Gene expression BB463610 average", "setting": "[2]", "value": 2.728}, {"measurement": "Gene expression BB730977 average", "setting": "[2]", "value": "−2.36"}, {"measurement": "Gene expression BB743970 average", "setting": "[2]", "value": 3.5588}, {"measurement": "Gene expression BB770528 average", "setting": "[2]", "value": 2.0332}, {"measurement": "Gene expression BB781615 average", "setting": "[2]", "value": 0.8952}, {"measurement": "Gene expression BC003284 average", "setting": "[2]", "value": 2.093}, {"measurement": "Gene expression BC004827 average", "setting": "[2]", "value": "−3.639"}, {"measurement": "Gene expression BC005552 average", "setting": "[2]", "value": "−1.342"}, {"measurement": "Gene expression BC006713 average", "setting": "[2]", "value": 1.2958}, {"measurement": "Gene expression BC010318 average", "setting": "[2]", "value": "−1.729"}, {"measurement": "Gene expression BC012247 average", "setting": "[2]", "value": 2.2674}, {"measurement": "Gene expression BC012955 average", "setting": "[2]", "value": "−2.241"}, {"measurement": "Gene expression BC013893 average", "setting": "[2]", "value": 1.864}, {"measurement": "Gene expression BC017615 average", "setting": "[2]", "value": "−3.947"}, {"measurement": "Gene expression BC019379 average", "setting": "[2]", "value": "−2.7493"}, {"measurement": "Gene expression BC019882 average", "setting": "[2]", "value": 2.442}, {"measurement": "Gene expression BC021352 average", "setting": "[2]", "value": 3.121}, {"measurement": "Gene expression BC022148 average", "setting": "[2]", "value": 2.668}, {"measurement": "Gene expression BC025169 average", "setting": "[2]", "value": "−3.296"}, {"measurement": "Gene expression BC026131 average", "setting": "[2]", "value": "−0.9986"}, {"measurement": "Gene expression BC027026 average", "setting": "[2]", "value": 2.873}, {"measurement": "Gene expression BC027121 average", "setting": "[2]", "value": 2.742}, {"measurement": "Gene expression BC027185 average", "setting": "[2]", "value": 2.115}, {"measurement": "Gene expression BE956581 average", "setting": "[2]", "value": 3.68}, {"measurement": "Gene expression BF719766 average", "setting": "[2]", "value": 2.112}, {"measurement": "Gene expression BG065754 average", "setting": "[2]", "value": 1.3079}, {"measurement": "Gene expression BG066491 average", "setting": "[2]", "value": "−1.929"}, {"measurement": "Gene expression BG076151 average", "setting": "[2]", "value": 2.5119}, {"measurement": "Gene expression BG076333 average", "setting": "[2]", "value": "−1.87"}, {"measurement": "Gene expression BG797099 average", "setting": "[2]", "value": 2.6244}, {"measurement": "Gene expression BG967046 average", "setting": "[2]", "value": 1.305}, {"measurement": "Gene expression BI651416 average", "setting": "[2]", "value": 2.2069}, {"measurement": "Gene expression BI966443 average", "setting": "[2]", "value": 4.094}, {"measurement": "Gene expression BM198879 average", "setting": "[2]", "value": 1.928}, {"measurement": "Gene expression BM200015 average", "setting": "[2]", "value": 1.702}, {"measurement": "Gene expression BM230508 average", "setting": "[2]", "value": 2.571}, {"measurement": "Gene expression BM936480 average", "setting": "[2]", "value": 2.006}, {"measurement": "Gene expression BQ174991 average", "setting": "[2]", "value": "−2.777"}, {"measurement": "Gene expression L21027 average", "setting": "[2]", "value": "−4.612"}, {"measurement": "Gene expression NM_007556 average", "setting": "[2]", "value": "−4.012"}, {"measurement": "Gene expression NM_007980 average", "setting": "[2]", "value": 2.9391}, {"measurement": "Gene expression NM_007987 average", "setting": "[2]", "value": 2.2406}, {"measurement": "Gene expression NM_008522 average", "setting": "[2]", "value": 5.9249}, {"measurement": "Gene expression NM_008935 average", "setting": "[2]", "value": "−3.601"}, {"measurement": "Gene expression NM_009897 average", "setting": "[2]", "value": 4.658}, {"measurement": "Gene expression NM_011075 average", "setting": "[2]", "value": 3.096}, {"measurement": "Gene expression NM_011176 average", "setting": "[2]", "value": 1.856}, {"measurement": "Gene expression NM_011316 average", "setting": "[2]", "value": 2.256}, {"measurement": "Gene expression NM_012006 average", "setting": "[2]", "value": 3.166}]}]}
